# In PubChem BioAssay (NCI):
#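 Cultured in 96-well plates, cells were exposed to test compound for 48 hours across five concentrations. TGI: total growth inhibition.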
# What was measured:
# Assay in all cases: NCI anticancer screen, dose series, 48 h
# SNB-75 CNS = test system: SNB-75 CNS
# 786-0 renal = test system: 786-0 renal
# HCT-15 colon = test system: HCT-15 colon
# PC-3 prostate = test system: PC-3 prostate
# HOP-62 NSCLC = test system: HOP-62 NSCLC
# OVCAR-3 ovarian = test system: OVCAR-3 ovarian
# A498 renal = test system: A498 renal
# T-47D breast = test system: T-47D breast
# LOX IMVI melanoma = test system: LOX IMVI melanoma
# RXF 393 renal = test system: RXF 393 renal
# OVCAR-5 ovarian = test system: OVCAR-5 ovarian
# UO-31 renal = test system: UO-31 renal
# RPMI-8226 leukemia = test system: RPMI-8226 leukemia
# SF-268 CNS = test system: SF-268 CNS
# U251 CNS = test system: U251 CNS
# COLO 205 colon = test system: COLO 205 colon
# UACC-62 melanoma = test system: UACC-62 melanoma
# K-562 leukemia = test system: K-562 leukemia
# MCF7 breast = test system: MCF7 breast
# HT29 colon = test system: HT29 colon
# SNB-19 CNS = test system: SNB-19 CNS
# NCI-H23 lung = test system: NCI-H23 lung
# UACC-257 melanoma = test system: UACC-257 melanoma
# DU-145 prostate = test system: DU-145 prostate
# NCI-H522 lung = test system: NCI-H522 lung
# HL-60(TB) leukemia = test system: HL-60(TB) leukemia
# SK-OV-3 ovarian = test system: SK-OV-3 ovarian
# SF-295 CNS = test system: SF-295 CNS
# OVCAR-8 ovarian = test system: OVCAR-8 ovarian
# SK-MEL-2 melanoma = test system: SK-MEL-2 melanoma
# MDA-N = test system: MDA-N
# SW-620 colon = test system: SW-620 colon
# MDA-MB-231 breast = test system: MDA-MB-231 breast
# BT-549 breast = test system: BT-549 breast
# NCI-H226 lung = test system: NCI-H226 lung
# M14 melanoma = test system: M14 melanoma
# MDA-MB-435 = test system: MDA-MB-435
# SF-539 CNS = test system: SF-539 CNS
# MALME-3M melanoma = test system: MALME-3M melanoma
# CAKI-1 renal = test system: CAKI-1 renal
# OVCAR-4 ovarian = test system: OVCAR-4 ovarian
# SK-MEL-28 melanoma = test system: SK-MEL-28 melanoma
# NCI/ADR-RES ovarian = test system: NCI/ADR-RES ovarian
# KM12 colon = test system: KM12 colon
# IGROV1 ovarian = test system: IGROV1 ovarian
# TK-10 renal = test system: TK-10 renal
# A549 NSCLC = test system: A549 NSCLC
# HCC-2998 colon = test system: HCC-2998 colon
# NCI-H460 lung = test system: NCI-H460 lung
# HCT-116 colon = test system: HCT-116 colon
# SK-MEL-5 melanoma = test system: SK-MEL-5 melanoma
# EKVX NSCLC = test system: EKVX NSCLC
# ACHN renal = test system: ACHN renal
# SN12C renal = test system: SN12C renal
# HOP-92 NSCLC = test system: HOP-92 NSCLC
# CCRF-CEM leukemia = test system: CCRF-CEM leukemia
# MOLT-4 leukemia = test system: MOLT-4 leukemia
# SR leukemia = test system: SR leukemia
smiles,measurement,setting,value
COC(=O)[C@]1(c2cc3ccccc3[nH]2)CC2CN(CC(=O)N(C)OC)C1CC2(OC)OC (stereo not given in full),TGI,SNB-75 CNS,> 100 µM
same,TGI,786-0 renal,57.7 µM
same,TGI,HCT-15 colon,> 100 µM
same,TGI,PC-3 prostate,71.9 µM
same,TGI,HOP-62 NSCLC,> 100 µM
same,TGI,OVCAR-3 ovarian,> 100 µM
same,TGI,A498 renal,> 100 µM
same,TGI,T-47D breast,57.1 µM
same,TGI,LOX IMVI melanoma,> 100 µM
same,TGI,RXF 393 renal,> 100 µM
same,TGI,OVCAR-5 ovarian,> 100 µM
same,TGI,UO-31 renal,> 100 µM
same,TGI,RPMI-8226 leukemia,39.6 µM
same,TGI,SF-268 CNS,> 100 µM
same,TGI,U251 CNS,30.7 µM
same,TGI,COLO 205 colon,> 100 µM
same,TGI,UACC-62 melanoma,> 100 µM
same,TGI,K-562 leukemia,66.4 µM
same,TGI,MCF7 breast,> 100 µM
same,TGI,HT29 colon,> 100 µM
same,TGI,SNB-19 CNS,> 100 µM
same,TGI,NCI-H23 lung,> 100 µM
same,TGI,UACC-257 melanoma,> 100 µM
same,TGI,DU-145 prostate,> 100 µM
same,TGI,NCI-H522 lung,44.6 µM
same,TGI,HL-60(TB) leukemia,39.5 µM
same,TGI,SK-OV-3 ovarian,> 100 µM
same,TGI,SF-295 CNS,> 100 µM
same,TGI,OVCAR-8 ovarian,> 100 µM
same,TGI,SK-MEL-2 melanoma,> 100 µM
same,TGI,MDA-N,> 100 µM
same,TGI,SW-620 colon,> 100 µM
same,TGI,MDA-MB-231 breast,> 100 µM
same,TGI,BT-549 breast,59.8 µM
same,TGI,NCI-H226 lung,> 100 µM
same,TGI,M14 melanoma,> 100 µM
same,TGI,MDA-MB-435,91.3 µM
same,TGI,SF-539 CNS,> 100 µM
same,TGI,MALME-3M melanoma,> 100 µM
same,TGI,CAKI-1 renal,56 µM
same,TGI,OVCAR-4 ovarian,> 100 µM
same,TGI,SK-MEL-28 melanoma,> 100 µM
same,TGI,NCI/ADR-RES ovarian,> 100 µM
same,TGI,KM12 colon,> 100 µM
same,TGI,IGROV1 ovarian,> 100 µM
same,TGI,TK-10 renal,> 100 µM
same,TGI,A549 NSCLC,> 100 µM
same,TGI,HCC-2998 colon,> 100 µM
same,TGI,NCI-H460 lung,> 100 µM
same,TGI,HCT-116 colon,70.7 µM
same,TGI,SK-MEL-5 melanoma,> 100 µM
same,TGI,EKVX NSCLC,> 100 µM
same,TGI,ACHN renal,> 100 µM
same,TGI,SN12C renal,> 100 µM
same,TGI,HOP-92 NSCLC,> 100 µM
same,TGI,CCRF-CEM leukemia,32 µM
O=c1[nH]nc(Cn2c3ccc(Br)cc3c3nc4ccccc4nc32)n1C1CCCCC1,TGI,SNB-75 CNS,> 100 µM
same,TGI,786-0 renal,> 100 µM
same,TGI,HCT-15 colon,> 100 µM
same,TGI,PC-3 prostate,59.8 µM
same,TGI,HOP-62 NSCLC,52.8 µM
same,TGI,OVCAR-3 ovarian,> 100 µM
same,TGI,A498 renal,57.4 µM
same,TGI,T-47D breast,> 100 µM
same,TGI,LOX IMVI melanoma,> 100 µM
same,TGI,RXF 393 renal,> 100 µM
same,TGI,OVCAR-5 ovarian,> 100 µM
same,TGI,UO-31 renal,> 100 µM
same,TGI,RPMI-8226 leukemia,77.6 µM
same,TGI,SF-268 CNS,> 100 µM
same,TGI,U251 CNS,> 100 µM
same,TGI,COLO 205 colon,> 100 µM
same,TGI,MOLT-4 leukemia,> 100 µM
same,TGI,UACC-62 melanoma,81.1 µM
same,TGI,SR leukemia,> 100 µM
same,TGI,K-562 leukemia,> 100 µM
same,TGI,MCF7 breast,> 100 µM
same,TGI,HT29 colon,> 100 µM
same,TGI,SNB-19 CNS,> 100 µM
same,TGI,NCI-H23 lung,40.9 µM
same,TGI,UACC-257 melanoma,> 100 µM
same,TGI,DU-145 prostate,> 100 µM
same,TGI,SK-OV-3 ovarian,> 100 µM
same,TGI,SF-295 CNS,> 100 µM
same,TGI,OVCAR-8 ovarian,> 100 µM
same,TGI,SK-MEL-2 melanoma,> 100 µM
same,TGI,MDA-N,> 100 µM
same,TGI,SW-620 colon,> 100 µM
same,TGI,MDA-MB-231 breast,> 100 µM
same,TGI,BT-549 breast,> 100 µM
same,TGI,NCI-H226 lung,> 100 µM
same,TGI,M14 melanoma,> 100 µM
same,TGI,MDA-MB-435,> 100 µM
same,TGI,SF-539 CNS,46 µM
same,TGI,CAKI-1 renal,> 100 µM
same,TGI,OVCAR-4 ovarian,> 100 µM
same,TGI,SK-MEL-28 melanoma,59.2 µM
same,TGI,NCI/ADR-RES ovarian,> 100 µM
same,TGI,KM12 colon,> 100 µM
same,TGI,IGROV1 ovarian,> 100 µM
same,TGI,TK-10 renal,> 100 µM
same,TGI,A549 NSCLC,> 100 µM
same,TGI,HCC-2998 colon,> 100 µM
same,TGI,NCI-H460 lung,> 100 µM
same,TGI,HCT-116 colon,> 100 µM
same,TGI,SK-MEL-5 melanoma,> 100 µM
same,TGI,EKVX NSCLC,> 100 µM
same,TGI,ACHN renal,> 100 µM
same,TGI,SN12C renal,> 100 µM
same,TGI,HOP-92 NSCLC,63.3 µM
